Measured values from patent US10920265B2, “Compounds and methods for detection of enzymes that remove methyl succinyl groups from epsilon-amino lysine moieties” (Enzo Life Sciences, Inc., priority 2011, dated 2021).
*: point of attachment. AMC = Cc1cc(=O)oc2cc(N*)ccc12

Molecular target: T1, SIRT5 (Homo sapiens, UniProt Q9NXA8)
T1 sequence (Q9NXA8 37-310): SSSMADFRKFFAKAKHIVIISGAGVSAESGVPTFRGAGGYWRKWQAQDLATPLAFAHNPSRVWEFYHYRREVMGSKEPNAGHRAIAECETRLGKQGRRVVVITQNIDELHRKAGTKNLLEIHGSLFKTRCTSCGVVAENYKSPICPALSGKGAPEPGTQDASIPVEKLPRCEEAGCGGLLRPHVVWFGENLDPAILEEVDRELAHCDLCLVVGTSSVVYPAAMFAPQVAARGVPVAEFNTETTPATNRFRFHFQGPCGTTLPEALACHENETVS
Experiment: SIRT5 desuccinylation/deacetylation of fluorogenic lysyl substrates, trypsin developer
Assay type: biochemical
Design: purchased Enzo Life Sciences BML-SE555
Details: for Dependence of SIRT5 initial rate on substrate concentration: 20 min. at 37° C.
Experimental: FIG. 3 is graphs showing that SIRT5 catalyzes NAD^+-dependent desuccinylation of Ac-Lys(ε-succinyl)-AMC far more efficiently than NAD^+-dependent deacetylation of Ac-Arg-His-Lys-Lys(ε-acetyl)-AMC. Fifty μl reactions in Assay Buffer (50 mM Tris/HCl, pH 8.0, 137 mM NaCl, 2.7 mM KCl, 1 mM MgCl2, 1 mg/ml BSA) included 50 μM of either Ac-Lys(ε-succinyl)-AMC or Ac-Arg-His-Lys-Lys(ε-acetyl)-AMC, and, where indicated, 500 μM NAD^+ and 5 μg recombinant human SIRT5 (Enzo Life Sciences Cat. # BML-SE555). […] AMC fluorescence was read in a Cytofluor II plate-reading fluorimeter (Perseptive Biosystems) at wavelengths 360 nm (excitation)/460 nm (emission), Gain 54. Data represent the mean of two (No Enzyme) or three (+SIRT5) determinations and error bars the standard deviations. Panels A and B present the same data, but with the +SIRT5/+NAD^+/Ac-Lys(ε-succinyl)-AMC bar omitted from B to show the detail on the remaining bars. Statistically significant differences (Student's t-test) are indicated by asterisks as follows: *: p<0.02 vs. corresponding No Enzyme control; **: p<0.001 vs. corresponding −NAD^+ control; ***: p<3×10^−6 vs. both No Enzyme and −NAD^+ controls.
FIG. 4 is a graph showing that Ac-Lys(Succ.)-AMC enables SIRT5 assay at low enzyme concentrations. Fifty μl reactions in Assay Buffer (50 mM Tris/HCl, pH 8.0, 137 mM NaCl, 2.7 mM KCl, 1 mM MgCl2, 1 mg/ml BSA) included 2 or 10 μM Ac-Lys(ε-succinyl)-AMC, 500 μM NAD^+ and, where indicated, 5 ng recombinant human SIRT5 (Enzo Life Sciences Cat. # BML-SE555). […] AMC fluorescence was read in a Synergy 2 plate-reading fluorimeter (BioTek) at wavelengths 360 nm (excitation)/460 nm (emission), Gain 40. Data represent the mean of two (No Enzyme) or three (5 ng SIRT5) determinations and error bars the standard deviations. Statistically significant differences (Student's t-test) are indicated by asterisks as follows: *: p=0.002; **: p=0.009, each with respect to the corresponding “No SIRT5” samples.
FIG. 5 is graphs showing dependence of SIRT5 initial rate kinetics on the concentrations of Ac-Lys(Succ.)-AMC and Ac-Lys(Ac.)-AMC. Fifty μl desuccinylation or deacetylation reactions were performed as described earlier (FIG. 4), with the indicated concentrations of Ac-Lys(Succ.)-AMC or Ac-Lys(Ac.)-AMC and 1 mM NAD^+, for 20 min. at 37° C. Reactions with Ac-Lys(Succ.)-AMC contained 10 ng SIRT5 and those with Ac-Lys(Ac.)-AMC contained 5 SIRT5. Reactions were stopped and AMC cleaved from deacetylated or desuccinylated substrate by trypsin treatment as described earlier (FIG. 4). AMC fluorescence was read in a Synergy 2 plate-reading fluorimeter (BioTek) at wavelengths 360 nm (excitation)/460 nm (emission), Gain 40. Data represent the mean of the differences of three determinations with enzyme (10 ng or 5 SIRT5) from the mean of two no enzyme samples for each substrate concentration. Error bars are the standard deviations from those means. Fluorescence differences were converted to specific activities (pmol/min/μg) by measuring the fluorescence increase due to the addition a standard solution of AMC (5 μl of a […]).
FIG. 6 is a graph showing the dependence of SIRT5 initial rate kinetics of Ac-Lys(Succ.)-AMC desuccinylation on the concentration of NAD^+. Reaction conditions were as described for FIG. 5 but with a constant Ac-Lys(Succ.)-AMC concentration of 0.5 mM and the indicated concentrations of NAD^+. Data analysis and determination of kinetic parameters were as described (FIG. 5).
FIG. 12 is graphs showing that SIRT5 catalyzes NAD^+-dependent desuccinylation of (Ac-Lys(Succ.))2-R110 far more efficiently than NAD^+-dependent deacetylation of (Ac-Lys(Ac.))2-R110. Fifty μl reactions in Assay Buffer (50 mM Tris/HCl, pH 8.0, 137 mM NaCl, 2.7 mM KCl, 1 mM MgCl2, 1 mg/ml BSA) included 50 μM of either (Ac-Lys(Succ.))2-R110 or (Ac-Lys(Ac.))2-R110, and, where indicated, 500 μM NAD^+ and 5 μg recombinant human SIRT5 (Enzo Life Sciences Cat. # BML-SE555). […]

[1] = SIRT5, 50 μM substrate, 500 μM NAD^+

Activity [1] [pmol/min/µg]	Activity (pmol/min/μg) [1]	Fraction of substrate desuccinylated (5 μg SIRT5 (3 μM in 50 μl), 50 μM substrate, 60 min.) [%]	Desuccinylation relative to deacetylation of Ac-Arg-His-Lys-Lys(ε-acetyl)-AMC (5 μg SIRT5 per 50 μl, 50 μM substrate, 500 μM NAD^+, 60 min.)	kcat (varied substrate: Lysyl, 1 mM NAD^+) [s⁻¹]	kcat (varied substrate: NAD^+, constant 0.5 mM Ac-Lys(Succ.)-AMC) [s⁻¹]	Molecule	Dependence of SIRT5 initial rate on substrate concentration (1 mM NAD^+)	SIRT5/NAD^+ dependence of desuccinylation (5 μg SIRT5, 50 μM substrate, 500 μM NAD^+, 60 min.)
0.0174	–	–	–	–	–	CC(=O)NCCCCC(NC(C)=O)C(=O)Nc1ccc2c(C)cc(=O)oc2c1 (stereo not shown) [Ac-Lys(Ac.)-AMC, Ac-Lys(ε-acetyl)-AMC, reference compound]	remains linear over the concentration range of the assay	–
–	Ac-RHKK(Ac)-AMC/0.364 pmol/min/μg	–	–	–	–	Ac-Arg-His-Lys-Lys(ε-acetyl)-AMC (Ac-RHKK(Ac)-{AMC}; SMILES CC(=O)NCCCC[C@H](NC(=O)[C@H](CCCCN)NC(=O)[C@H](Cc1c[nH]cn1)NC(=O)[C@H](CCCNC(=N)N)NC(C)=O)C(=O)Nc1ccc2c(C)cc(=O)oc2c1) [Ac-RHKK(Ac)-AMC, p53 peptide fluorogenic deacetylase substrate, Cat. # BML-KI177, reference compound]	–	–
115	–	~50	at least 250 fold	0.26	0.29	CC(=O)N[C@@H](CCCCNC(=O)CCC(=O)O)C(=O)Nc1ccc2c(C)cc(=O)oc2c1 [Compound 1, N—(N^α-acetyl-L-Lysine(N^ε-succinyl))-AMC]	displays saturation kinetics	entirely dependent on the presence of SIRT5 and NAD^+
